According to patent US5597798A, “Taxol and epidermal growth factor used to enhance treatment of ovarian cancer” (The Regents of the University of California, priority 1994, dated 1997):
pIC50: −log10 of the molar value. Where two headings read alike, the source gives them in different places.

Legend:
[1] = tested on: 2008 human ovarian carcinoma cells; assay: Colony forming assay, effect of EGF on sensitivity to cytotoxic agents; assay type: cell-based
2008 cells = assay: Colony forming (colonogenic) assay, effect of TPA, phorbol and staurosporine on DDP sensitivity
2008 tumor xenografts = assay: Effect of EGF on cisplatin toxicity against tumor xenografts in athymic mice; assay type: in vivo, athymic mice (nu/nu)
Procedure: For these studies, 3 to 4 week old female athymic mice (nu/nu) from BALB/c origin were used which were supplied by Harlan Sprague Dawley, Inc. (Indianapolis, Ind.). The mice were kept in a laminar flow hood at 28° C. and fed standard mouse diet and water ad libitum.
Tumor xenografts were established from 2008 cells by harvesting confluent cell cultures by trypsinization and resuspending the cells in RPMI 1640 medium at 2.5×10^7 cells per ml. From this suspension, 0.2 ml aliquots containing 5×10^6 cells were injected s.c. on each shoulder of the athymic mice. In each mouse, two tumors were followed and tumor volumes were determined using the formula (length×width^2)/2 (Giavazzi et al., Cancer Res. 46:1928 (1986) and Tomayko & Reynolds Cancer Chemother. Pharmacol. 24:148 (1989)).
In all groups, treatment was administered 24 hours after the inoculation with tumor cells.
Tumor growth of each tumor in each animal was expressed as plot of in(tumor volume) as a function of time. The regression line of the in(tumor volume) versus time plot was calculated by using the method of least squares. The intercept and slope were obtained and used to calculate the time each tumor required to reach an arbitrarily defined volume of 1 ml. This volume was chosen because most tumors in all treatment groups reached this endpoint. For comparisons between two groups the unpaired Student's T-test was used. […]

2008/C13*5 cells = assay: Cellular accumulation of DDP; assay type: cell-based, human; settings: medium alone, end of a 1-h incubation
Procedure: Cell-associated ^195m Pt was determined by as a measure of DDP accumulation. For DDP accumulation studies, subconfluent monolayers were treated with 37° C. RPMI 1640 medium containing 20 μM [^195m Pt]-DDD. The dishes were immediately returned to the incubater. After 1 h incubation, the medium was aspirated, the cells were washed rapidly with 4° C. PBS 4 times. Two ml of 1N NaOH was added and the cells allowed to digest overnight. A forty μl aliquot was used for determination of protein content by the method of Bradford (Bradford, Anal. Biochem. 72:248-254 (1976)), and the remaining […] was counted in glass tubes on a Trak 1191 gamma counter (Tracer Analytic, EIK Grove Village, Ill.). Columns represent the mean values of 3 experiments performed with duplicate cultures. The bars represent the standard deviation.
The 2008/C13*5 cell line is 8-10-fold resistant to DDP. […] C13*5 cells were treated with appropriate concentration of DDP in the presence (.circle-solid.) or absence (0) of 10^-7 M TPA for 1 h. Drug cytotoxicity was determined by colonogenic assay on plastic dishes. Each point represents the mean values of 3 experiments performed with triplicate cultures. The bars represent the standard deviation. […] This 2.6-fold sensitization was nearly identical with the 2.5 fold sensitization observed in the DDP-sensitive 2008 cells. […]

N.N.[Cl][Pt][Cl] [cisplatin]
effect of EGF on sensitivity of 2008 cells to the agent (in words) ([1]; EGF and the cytotoxic agent concurrently for 1 h): significant increase in sensitivity
Dose modifying factor ([1]; Table 3, ratio of IC50 in control and EGF-treated cells): 2.7
pIC50 ([1]; read-out: IC50 in absence of EGF, Table 3, cisplatin 1 h, no EGF): 5.61
pIC50 ([1]; read-out: IC50 in absence of EGF, cytotoxic agent for 1 h, no EGF): 5.55
pIC50 ([1]; read-out: IC50 in presence of EGF, EGF and the cytotoxic agent concurrently for 1 h): 6.05
pIC50 ([1]; read-out: IC50 in presence of EGF, Table 3, 10 nM EGF and cisplatin concurrently for 1 h): 6.04
colony survival (2008 cells; 2 μM DDP in the absence of TPA (FIG. 6)): approximately 80%
survival, % of control (2008 cells; DDP (2 μM) alone): 85±5%
final tumor volume (2008 tumor xenografts; 1 mg/kg EGF s.c. and/or 15 mg/kg cisplatin i.p., 24 hours after inoculation): significantly reduced relative to control tumors
additional time required for tumors to reach a volume of 1 ml vs control tumors (2008 tumor xenografts; 15 mg/kg cisplatin i.p.): 6 days
DDP accumulated (2008/C13*5 cells): 37.0±3 pmol/mg of protein
